Results reported in ChEMBL document CHEMBL6092220 (J Med Chem, 2024).
The source made the active and inactive calls. The rule behind the calls is not given here.

Columns and labels:
[1] = Clearance in Beagle dog assessed as hepatic blood flow at 1 mg/kg, iv; format: ADME, organism-based, Canis lupus familiaris; conditions: in vivo
[2] = Stability in human plasma assessed as parent compound remaining at […]; format: ADME, cell-free; conditions: read-out: Stability
[3] = Drug concentration in female CB17 SCID mouse liver at 5 mg/kg, iv measured at 72 hrs by LC-MS/MS analysis; format: ADME, organism-based; conditions: read-out: Ct
[4] = target: Protein cereblon/Signal transducer and activator of transcription 6 (Homo sapiens) (UniProt P42226+Q96SW2); assay: PROTAC activity at STAT6/CRBN in human MOLM16 cells assessed as reduction in STAT6 level incubated for 4 hrs by Western blot analysis; format: cell-based
MOLM16 = assay: PROTAC activity at STAT5/CRBN in human MOLM16 cells assessed as reduction in STAT5 level upto 40 uM incubated for 4 hrs by Western blot analysis; format: cell-based
[5] = Drug concentration in female CB17 SCID mouse tumor at 5 mg/kg, iv measured at 48 hrs by LC-MS/MS analysis; format: ADME, organism-based, Neoplasm; conditions: read-out: Ct
Cytochrome P450 1A2 = Cytochrome P450 1A2 (Homo sapiens, UniProt P05177); assay: Inhibition of CYP1A2 (unknown origin); format: ADME
Cytochrome P450 2D6 = Cytochrome P450 2D6 (Homo sapiens, UniProt P10635); assay: Inhibition of CYP2D6 (unknown origin); format: ADME
[6] = Drug concentration in female CB17 SCID mouse spleen at 5 mg/kg, iv measured at 24 hrs by LC-MS/MS analysis; format: ADME, organism-based; conditions: read-out: Ct
[7] = target: T1, Protein cereblon/Signal transducer and activator of transcription 3 (Homo sapiens, UniProt P40763+Q96SW2); assay: PROTAC activity at his-SUMO-tagged STAT3 (127 to 688 residues)/CRBN in human MOLM16 cells assessed as reduction in STAT3 level at 10 uM incubated for 4 hrs by multiplexed quantitative proteomics analysis relative to control; format: cell-based; parameters: scale not given: the % may be the effect or the level left
[8] = Stability in human plasma assessed as half life; format: ADME, cell-free
[9] = target: T1, Protein cereblon/Signal transducer and activator of transcription 3; assay: PROTAC activity at STAT3/CRBN in human MOLM16 cells assessed as reduction in STAT3 level at 64 nM incubated for 4 hrs by Western blot analysis; format: cell-based
[10] = target: Protein cereblon/Signal transducer and activator of transcription 4 (Homo sapiens, UniProt Q96SW2+Q14765); assay: PROTAC activity at STAT4/CRBN in human PBMC cells assessed as reduction in STAT4 level incubated for 20 hrs by Western blot analysis; format: cell-based
[11] = target: Signal transducer and activator of transcription 6 (Homo sapiens) (UniProt P42226); assay: Binding affinity to STAT6 (unknown origin) assessed as maximum inhibition by FP assay relative to control
[12] = AUC (0 to t) in Beagle dog at 1 mg/kg, iv; format: ADME, organism-based, Canis lupus familiaris; conditions: in vivo
[13] = target: Signal transducer and activator of transcription 4 (Homo sapiens, UniProt Q14765); assay: Binding affinity to STAT4 (unknown origin) by FP assay
Homo sapiens = species on record: Homo sapiens; assay: Binding affinity to STAT5 (unknown origin) assessed as maximum inhibition by FP assay relative to control
[14] = target: Protein cereblon/Signal transducer and activator of transcription 2 (Homo sapiens) (UniProt Q96SW2+P52630); assay: PROTAC activity at STAT2/CRBN in human PBMC cells assessed as reduction in STAT2 level upto 40 uM incubated for 20 hrs by Western blot analysis; format: cell-based
[15] = Drug concentration in female CB17 SCID mouse plasma at 5 mg/kg, iv measured at 72 hrs by LC-MS/MS analysis; format: ADME, organism-based
[16] = Stability in dog plasma assessed as half life; format: ADME, cell-free, Canis lupus familiaris
[17] = Drug concentration in female CB17 SCID mouse tumor at 5 mg/kg, iv measured at 3 hrs by LC-MS/MS analysis; format: ADME, organism-based, Neoplasm; conditions: read-out: Ct
[18] = target: T1, Protein cereblon/Signal transducer and activator of transcription 3; assay: PROTAC activity at his-SUMO-tagged STAT3 (127 to 688 residues)/CRBN in human PBMC cells assessed as reduction in STAT3 level incubated for 20 hrs by Western blot analysis; format: cell-based

SMILES: COC(=O)N1CC[C@H]2CC[C@@H](C(=O)N[C@@H](CCC(N)=O)C(=O)N[C@@H](Cc3ccc(F)c(F)c3)C(=O)N3CCC(CCC#Cc4cccc5c4CN(C4CCC(=O)NC4=O)C5=O)CC3)N2C(=O)[C@@H](NC(=O)c2cc3cc(C(F)(F)P(=O)(O)O)ccc3s2)C1 (stereo partly drawn)
- QH [1]: 2.7%
- remaining at 2 h [2]: 75%
- concentration at 72 h [3]: 598 ng/g
- Activity [4]: inactive
- Activity (MOLM16): inactive
- concentration at 48 h [5]: 1110 ng/g
- IC50 (Cytochrome P450 1A2): > 10000 nM
- IC50 (Cytochrome P450 2D6): > 10000 nM
- concentration at 24 h [6]: 868 ng/g
- Activity [7]: 85%
- t1/2 [8]: > 2 h
- Activity [9]: Active
- DC50 [10]: 1600 nM
- Imax [11]: 10%
- AUC(0-t) [12]: 10700 ng·h/mL
- IC50 [13]: 360 nM
- Imax (Homo sapiens): 50%
- Activity [14]: inactive
- concentration at 72 h [15]: 8430 ng/mL
- t1/2 [16]: > 2 h
- concentration at 3 h [17]: 2830 ng/g
- DC50 [18]: 0.1 nM
- Activity ([18]; dose 0.1-4000 nM): Dose-dependent-effect
